In publication PMC3164379, “Three New Compounds from Aspergillus terreus PT06-2 Grown in a High Salt Medium” (Marine Drugs, 2011):
Values after ≈ are worked out from the molar mass of the structure shown. Read-outs that look alike come from different tables or passages of the source.

Key:
[1] = tested on: Enterobacter aerogenes; assay: Antimicrobial activity, agar dilution method; settings: for MIC Enterobacter aerogenes: agar dilution, paper disks, 24 h incubation, 37 °C; for MIC: Klebsiella aerogenes, 24 h, read-out: MIC Enterobacter aerogenes
Experimental: (§1) Antimicrobial activity against E. aerogenes, P. aeruginosa, S. aureus and C. albicans was evaluated using an agar dilution method [29]. The tested strains were cultivated in LB agar plates for bacteria and in YPD agar plates for C. albicans, at 37 °C. Compounds and positive controls were dissolved in 5% DMSO-H2O at different concentrations from 1000 to 62.5 μg/mL and then from 50 to 0.78 μg/mL, using continuous 2-fold dilution. The test solutions (5 μL) were absorbed onto paper disks (5 mm diameter) and placed on the assay plates. After 24 h incubation, zones of inhibition (mm in diameter) were recorded. The minimum inhibitory concentrations were defined as the lowest concentration at which an inhibition zone could be observed.

[2] = tested on: Staphylococcus aureus; assay: Antimicrobial activity, agar dilution method; settings: for MIC Staphylococcus aureus: agar dilution, paper disks, 24 h incubation, 37 °C; for MIC: Staphylococcus aureus, 24 h, read-out: MIC Staphylococcus aureus
Experimental: as §1

[3] = tested on: Pseudomonas aeruginosa; assay: Antimicrobial activity, agar dilution method; settings: for MIC Pseudomonas aeruginosa: agar dilution, paper disks, 24 h incubation, 37 °C; for MIC: Pseudomonas aeruginosa, 24 h
Experimental: as §1

[4] = tested on: Candida albicans; assay: Antimicrobial activity, agar dilution method; settings: for MIC: Candida albicans, 24 h, read-out: MIC Candida albicans
Experimental: as §1

[5] = tested on: HL-60 cell line; assay: in vitro; settings: human
Experimental: (§2) Cytotoxicity against HL-60 and BEL-7402 cancer cell lines and confluent MDCK cells was assayed by the MTT method [28]. Cell lines were grown in RPMI-1640 supplemented with 10% FBS under a humidified atmosphere of 5% CO2 and 95% air at 37 °C. […] Then, 2 μL of the test solutions (in MeOH) were added to each well and further incubated for 72 h. The MTT solution (20 μL, 5 mg/mL in IPMI-1640 medium) was then added to each well and incubated for 4 h. Old medium containing MTT (150 μL) was then gently replaced by DMSO and pipetted to dissolve any formazan crystals formed. Absorbance was then determined on a SPECTRA MAX PLUS plate reader at 540 nm. The CC50 was calculated as the compound concentration necessary to reduce cell viability by 50%.

[6] = Cytotoxicity against confluent MDCK cells by MTT method; format: cell-based; settings: dog, read-out: CC50 (50% cytotoxicity concentration)
Experimental: as §2

[7] = tested on: influenza virus (A/Puerto Rico/8/34 (H1N1), PR/8); assay: Antiviral activity against H1N1, CPE inhibition assay; format: cell-based; settings: read-out: IC50 anti-H1N1 activity
[8] = tested on: BEL-7402 cell line; assay: in vitro; settings: human
Experimental: as §2

[9] = read-out: MIC Pseudomonas aeruginosa, agar dilution, paper disks, 24 h incubation, 37 °C

| Compound | MIC Pseudomonas aeruginosa [3] | MIC [4] | MIC [1] | MIC [2] | MIC [3, 9] | further results |
| --- | --- | --- | --- | --- | --- | --- |
| CC(O)C(=O)O.O=C(O)c1cn(C2CC2)c2cc(N3CCNCC3)c(F)cc2c1=O [Ciprofloxacinlactate, reference compound] | 30 µM | – | – | – | – | MIC Enterobacter aerogenes [1]: 1 µM; MIC Staphylococcus aureus [2]: 1 µM |
| COC(=O)c1cccc(O)c1NC(=O)c1ccccc1NC(=O)c1cccnc1 [Compound 1, methyl 3-hydroxy-2-(2-(nicotinamido)benzamido)benzoate] | >100 µM | > 100 µM | > 100 µM | 63.9 µM (≈ 25 µg/mL) | 63.9 µM (≈ 25 µg/mL) | – |
| COC(=O)c1cccc(O)c1-n1c(-c2cccnc2)nc2ccccc2c1=O [Compound 2, methyl 3-hydroxy-2-(4-oxo-2-(pyridin-3-yl)quinazolin-3(4H)-yl)benzoate] | – | > 100 µM | 33.5 µM (≈ 12.5 µg/mL) | > 100 µM | > 100 µM | – |
| COC(=O)[C@]1(Cc2ccc(O)c(CCC(C)(C)O)c2)OC(=O)C(O)=C1c1ccc(O)cc1 [Compound 3, (R)-methyl 4-hydroxy-2-(4-hydroxy-3-(3-hydroxy-3-methylbutyl)benzyl)-3-(4-hydroxyphenyl)-5-oxo-2,5-dihydrofuran-2-carboxylate] | – | > 100 µM | > 100 µM | > 100 µM | – | MIC ([3]; read-out: MIC Pseudomonas aeruginosa): > 100 µM |
| COC(=O)c1cc(OC)c(OC)c(OC)c1NC(=O)c1ccccc1NC(=O)c1cccnc1 [Compound 4, methyl 3,4,5-trimethoxy-2-(2-(nicotinamido)benzamido)benzoate] | – | > 100 µM | > 100 µM | 52.4 µM (≈ 24.4 µg/mL) | > 100 µM | – |
| COC(=O)[C@]1(Cc2ccc(O)c(CC=C(C)C)c2)OC(=O)C(O)=C1c1ccc(O)cc1 [Compound 5, butyrolactone I] | – | – | – | – | – | IC50 at 72 h [5]: 57.5 µM; CC50 at 72 h [6]: 976 µM; IC50 ([7]; MDCK, 48 h): 143 µM |
| C/C=C/C1=CC(=O)[C@@H](O)[C@@H]1O [Compound 15, (+)-terrein] | >100 µM | – | – | – | – | MIC Candida albicans ([4]; agar dilution, YPD agar, paper disks, 24 h incubation, 37 °C): >100 µM; MIC Enterobacter aerogenes [1]: >100 µM; MIC Staphylococcus aureus [2]: >100 µM |
| CC(=O)N1CCN(c2ccc(OCC3COC(Cn4ccnc4)(c4ccc(Cl)cc4Cl)O3)cc2)CC1 (stereo not shown) [Ketoconazole, reference compound] | – | 5 µM (≈ 2.66 µg/mL) | – | – | – | – |
| NC(=O)c1ncn([C@@H]2O[C@H](CO)[C@@H](O)[C@H]2O)n1 [Ribavirin, reference compound] | – | – | – | – | – | IC50 ([7]; CPE inhibition in MDCK cells, 48 h post-infection): 101 µM |
| COc1cc([C@@H]2c3cc4c(cc3[C@@H](O[C@@H]3O[C@@H]5CO[C@@H](C)O[C@H]5[C@H](O)[C@H]3O)[C@H]3COC(=O)[C@H]23)OCO4)cc(OC)c1O [Vp-16, Etoposide, reference compound] | – | – | – | – | – | IC50 at 72 h [5]: 0.042 µM; IC50 at 72 h [8]: 830 nM |
